Experimental data published in the Kinase Knowledgebase extract (Sharma et al. 2016).

biological target: CDK2 (human) (UniProt P24941); experiment: Enzyme Assay

IC50, < 1000 nM:
Cc1cc(C(=O)Nc2c[nH]nc2-c2nc(C(F)(F)F)c(C)[nH]2)no1
Cc1[nH]c(-c2n[nH]cc2NC(=O)c2onc3ccccc23)nc1C(F)(F)F
Cc1[nH]c(-c2n[nH]cc2NC(=O)c2ccc3c(c2)OCC3)nc1C(F)(F)F
CCOc1ccccc1C(=O)Nc1c[nH]nc1-c1nc(C(F)(F)F)c(C)[nH]1
COc1cccc(Cl)c1C(=O)Nc1c[nH]nc1-c1nc(C(F)(F)F)c(C)[nH]1
COc1ccc(F)cc1C(=O)Nc1c[nH]nc1-c1nc(C(F)(F)F)c(C)[nH]1
Cc1[nH]c(-c2n[nH]cc2NC(=O)CC2CC2)nc1C(F)(F)F
Cc1[nH]c(-c2n[nH]cc2NC(=O)c2c(F)cc(F)cc2F)nc1C(F)(F)F
Cc1[nH]c(-c2n[nH]cc2NC(=O)c2cccc3c2OCC3)nc1C(F)(F)F
COc1ccc(S(C)(=O)=O)cc1C(=O)Nc1c[nH]nc1-c1nc(C(F)(F)F)c(C)[nH]1
Cc1[nH]c(-c2n[nH]cc2NC(=O)C(C#N)C2CC2)nc1C(F)(F)F (stereo not drawn)
Cc1[nH]c(-c2n[nH]cc2NC(=O)c2cc(CN3CCOCC3)c(C)o2)nc1C(F)(F)F
Cc1[nH]c(-c2n[nH]cc2NC(=O)c2ccco2)nc1C(F)(F)F
